Results taken from patent publication US20190100534A1, “Cephem Compounds with Latent Reactive Groups” (Gladius Pharmaceuticals, Inc., priority 2017, published 2019).

Experiments:
[1] = system: Pseudomonas aeruginosa (PA); assay: MIC determination; type: cell-based; conditions: Pseudomonas aeruginosa; PA; CAMH broth, 20 μM Apo-Transferrin, 37° C., 18 hours; read-out: Minimum Inhibitory Concentrations, PA
How it was run: (§1)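 Broth microdilution in CAMH + 20 μM apo-transferrin; inoculum 0.5 McFarland, used within 30 min. Compound 64→0.125 μg/mL, twofold steps. 37 °C, 18 h. MIC = lowest clear-well concentration.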

[2] = system: Pseudomonas aeruginosa PA (RR-1); assay: MIC determination; type: cell-based; conditions: Pseudomonas aeruginosa; PA (RR-1); CAMH broth, 20 μM Apo-Transferrin, 37° C., 18 hours; read-out: Minimum Inhibitory Concentrations, PA (RR-1)
How it was run: as §1

[3] = system: Pseudomonas aeruginosa PA (RR-2); assay: MIC determination; type: cell-based; conditions: Pseudomonas aeruginosa; PA (RR-2); CAMH broth, 20 μM Apo-Transferrin, 37° C., 18 hours; read-out: Minimum Inhibitory Concentrations, PA (RR-2)
How it was run: as §1

[4] = system: Pseudomonas aeruginosa PA (URMC-2); assay: MIC determination; type: cell-based; conditions: Pseudomonas aeruginosa; PA (URMC-2); CAMH broth, 20 μM Apo-Transferrin, 37° C., 18 hours; read-out: Minimum Inhibitory Concentrations, PA (URMC-2)
How it was run: as §1

[5] = system: Pseudomonas aeruginosa PA-RR-(980151052); assay: MIC determination; type: cell-based; conditions: Pseudomonas aeruginosa; PA-RR-(980151052); CAMH broth, 20 μM Apo-Transferrin, 37° C., 18 hours; read-out: Minimum Inhibitory Concentrations, PA-RR-(980151052)
How it was run: as §1

[6] = system: Pseudomonas aeruginosa PA-RR-(G7305586); assay: MIC determination; type: cell-based; conditions: Pseudomonas aeruginosa; PA-RR-(G7305586); CAMH broth, 20 μM Apo-Transferrin, 37° C., 18 hours; read-out: Minimum Inhibitory Concentrations, PA-RR-(G7305586)
How it was run: as §1

[7] = system: Pseudomonas aeruginosa PA-RR-(purple Fre D); assay: MIC determination; type: cell-based; conditions: Pseudomonas aeruginosa, CAMH broth, 20 μM Apo-Transferrin, 37° C., 18 hours, read-out: Minimum Inhibitory Concentrations, PA-RR-(purple Fre D)
How it was run: as §1

EC (RR -1) = assay: MIC determination; type: cell-based, Escherichia coli; conditions: CAMH broth, 20 μM Apo-Transferrin, 37° C., 18 hours
Protocol: (§2) Sterile technique was used throughout these experiments. Suspensions of organisms were removed from storage (−80° C.) and partially thawed. Partially thawed organisms (1 μL) were inoculated into 3 mL sterile LB Broth in a sterile culture tube and capped, then cultured at 37° C. with shaking for 4-5 hours until the optical density at 600 nm (OD600) was greater than 0.1 on a single beam spectrophotometer.
(§3) The concentration of organisms was adjusted to 0.08-0.1 OD600 (0.5 McFarland units) by dilution with sterile cation-adjusted Meuller-Hinton (CAMH) broth. The suspensions were used within 30 minutes of preparation.
(§4) A stock solution was made of each test compound by measuring 6.4 mg of the compound on an analytical balance and dissolving it in DMSO (1 mL) to get a transparent solution. The solutions were stored at −20° C. and thawed prior to use.
(§5) Sterile CAMH broth (200 μL) containing 20 μM Apo-Transferrin was pipetted into the first row of 8 columns of a sterile, round-bottomed, transparent, 96-well microplate using an 8-channel pipette equipped with sterile tips. One hundred μL was pipetted into the wells of the remaining 11 rows.
(§6) With an 8-channel pipette equipped with sterile tips, 100 μL of the first row solution was transferred to the second row and mixed. The process was repeated for the second to third rows and continued through row 11. One hundred μL from row 11 was removed and discarded so that all 12 rows contained 100 μL. Row 12 contained no compound and rows 1-11 contained 64, 32, 16, 8, 4, 2, 1, 0.5, 0.25, 0.125, […] of a given compound.
(§7) Inoculant suspensions (0.5 μL) were added to the 12 wells of each column. The plates were then covered and incubated at 37° C. overnight for 18 hours.
(§8) For each organism the MIC was determined by identifying the transparent well with the lowest test compound concentration.

EC (RR -2) = assay: MIC determination; type: cell-based, Escherichia coli; conditions: CAMH broth, 20 μM Apo-Transferrin, 37° C., 18 hours
Protocol: as §2, §3, §4, §5, §6, §7, §8

EC (URMC-1) = assay: MIC determination; type: cell-based, Escherichia coli; conditions: Escherichia coli, CAMH broth, 20 μM Apo-Transferrin, 37° C., 18 hours, read-out: Minimum Inhibitory Concentrations, EC (URMC-1)
Protocol: as §2, §3, §4, §5, §6, §7, §8

EC (URMC-2) = assay: MIC determination; type: cell-based, Escherichia coli; conditions: Escherichia coli, CAMH broth, 20 μM Apo-Transferrin, 37° C., 18 hours, read-out: Minimum Inhibitory Concentrations, EC (URMC-2)
Protocol: as §2, §3, §4, §5, §6, §7, §8

EC (URMC-3) = assay: MIC determination; type: cell-based, Escherichia coli; conditions: Escherichia coli, CAMH broth, 20 μM Apo-Transferrin, 37° C., 18 hours, read-out: Minimum Inhibitory Concentrations, EC (URMC-3)
Protocol: as §2, §3, §4, §5, §6, §7, §8

EC(ATCC NDM-1) = assay: MIC determination; type: cell-based, Escherichia coli; conditions: Escherichia coli, CAMH broth, 20 μM Apo-Transferrin, 37° C., 18 hours, read-out: Minimum Inhibitory Concentrations, EC(ATCC NDM-1)
Protocol: as §2, §3, §4, §5, §6, §7, §8

EC(JMI OXA-48) = assay: MIC determination; type: cell-based, Escherichia coli; conditions: Escherichia coli, CAMH broth, 20 μM Apo-Transferrin, 37° C., 18 hours, read-out: Minimum Inhibitory Concentrations, EC(JMI OXA-48)
Protocol: as §2, §3, §4, §5, §6, §7, §8

EC(KB1 CTX-M-15) = assay: MIC determination; type: cell-based, Escherichia coli; conditions: Escherichia coli, CAMH broth, 20 μM Apo-Transferrin, 37° C., 18 hours, read-out: Minimum Inhibitory Concentrations, EC(KB1 CTX-M-15)
Protocol: as §2, §3, §4, §5, §6, §7, §8

EC(KB2 CTX-M-15) = assay: MIC determination; type: cell-based, Escherichia coli; conditions: Escherichia coli, CAMH broth, 20 μM Apo-Transferrin, 37° C., 18 hours, read-out: Minimum Inhibitory Concentrations, EC(KB2 CTX-M-15)
Protocol: as §2, §3, §4, §5, §6, §7, §8

KP (ATCC KPC-3) = assay: MIC determination; type: cell-based, Klebsiella pneumoniae; conditions: CAMH broth, 20 μM Apo-Transferrin, 37° C., 18 hours
Protocol: as §2, §3, §4, §5, §6, §7, §8

KP (GJ 5659 TEM-26) = assay: MIC determination; type: cell-based, Klebsiella pneumoniae; conditions: CAMH broth, 20 μM Apo-Transferrin, 37° C., 18 hours
Protocol: as §2, §3, §4, §5, §6, §7, §8

KP (RR -1) = assay: MIC determination; type: cell-based, Klebsiella pneumoniae; conditions: CAMH broth, 20 μM Apo-Transferrin, 37° C., 18 hours
Protocol: as §2, §3, §4, §5, §6, §7, §8

KP (URMC-1) = assay: MIC determination; type: cell-based, Klebsiella pneumoniae; conditions: CAMH broth, 20 μM Apo-Transferrin, 37° C., 18 hours
Protocol: as §2, §3, §4, §5, §6, §7, §8

KP (URMC-2) = assay: MIC determination; type: cell-based, Klebsiella pneumoniae; conditions: CAMH broth, 20 μM Apo-Transferrin, 37° C., 18 hours
Protocol: as §2, §3, §4, §5, §6, §7, §8

KP (URMC-3) = assay: MIC determination; type: cell-based, Klebsiella pneumoniae; conditions: CAMH broth, 20 μM Apo-Transferrin, 37° C., 18 hours
Protocol: as §2, §3, §4, §5, §6, §7, §8

KP(GJ 5934 TEM-26) = assay: MIC determination; type: cell-based, Klebsiella pneumoniae; conditions: CAMH broth, 20 μM Apo-Transferrin, 37° C., 18 hours
Protocol: as §2, §3, §4, §5, §6, §7, §8

KP(JMI KPC-2) = assay: MIC determination; type: cell-based, Klebsiella pneumoniae; conditions: CAMH broth, 20 μM Apo-Transferrin, 37° C., 18 hours
Protocol: as §2, §3, §4, §5, §6, §7, §8

KP(ATCC TEM-10/TEM-12) = type: cell-based, Klebsiella pneumoniae; conditions: CAMH broth, 20 μM Apo-Transferrin, 37° C., 18 hours
Protocol: as §2, §3, §4, §5, §6, §7, §8

ENA (URMC-1) = assay: MIC determination; type: cell-based, Enterobacter aerogenes; conditions: Klebsiella aerogenes, CAMH broth, 20 μM Apo-Transferrin, 37° C., 18 hours, read-out: Minimum Inhibitory Concentrations, ENA (URMC-1)
Protocol: as §2, §3, §4, §5, §6, §7, §8

ENA (URMC-2) = assay: MIC determination; type: cell-based, Enterobacter aerogenes; conditions: Klebsiella aerogenes, CAMH broth, 20 μM Apo-Transferrin, 37° C., 18 hours, read-out: Minimum Inhibitory Concentrations, ENA (URMC-2)
Protocol: as §2, §3, §4, §5, §6, §7, §8

CF (RR -1) = assay: MIC determination; type: cell-based, Citrobacter freundii; conditions: CAMH broth, 20 μM Apo-Transferrin, 37° C., 18 hours
Protocol: as §2, §3, §4, §5, §6, §7, §8

CC(C)(O/N=C(\C(=O)N[C@@H]1C(=O)N2C(C(=O)O)=C(C=Cc3ccc(C[N+]4(C)CCc5c(Cl)c(O)c(O)c(Cl)c5C4)cc3)CS[C@H]12)c1csc(N)n1)C(=O)O (mixture of isomers) [Compound 429, 2-(4-((E/Z)-2-((6R,7R)-7-((Z)-2-(2-aminothiazol-4-yl)-2-(((2-carboxypropan-2-yl)oxy)imino)acetamido)-2-carboxy-8-oxo-5-thia-1-azabicyclo[4.2.0]oct-2-en-3-yl)vinyl)benzyl)-5,8 dichloro-6,7-dihydroxy-2-methyl-1,2,3,4-tetrahydroisoquinolin-2-ium]
MIC [1]: 0.25 µg/mL | MIC [2]: 0.25 µg/mL | MIC [3]: ≤ 0.06 µg/mL | MIC [4]: 0.5 µg/mL | MIC [5]: 0.5 µg/mL | MIC [6]: 1 µg/mL | MIC [7]: 2 µg/mL | Mimimum Inhibitory Concentrations, EC (RR -1) (EC (RR -1)): ≤0.06 microgram/mL | Mimimum Inhibitory Concentrations, EC (RR -2) (EC (RR -2)): ≤0.06 microgram/mL | MIC (EC (URMC-1)): 0.5 µg/mL | MIC (EC (URMC-2)): 0.13 µg/mL | MIC (EC (URMC-3)): 0.5 µg/mL | MIC (EC(ATCC NDM-1)): > 64 µg/mL | MIC (EC(JMI OXA-48)): 2 µg/mL | MIC (EC(KB1 CTX-M-15)): 8 µg/mL | MIC (EC(KB2 CTX-M-15)): 8 µg/mL | Minimum Inhibitory Concentrations, KP (ATCC KPC-3) (KP (ATCC KPC-3)): >64 microgram/mL | Minimum Inhibitory Concentrations, KP (GJ 5659 TEM-26) (KP (GJ 5659 TEM-26)): 0.5 microgram/mL | Mimimum Inhibitory Concentrations, KP (RR -1) (KP (RR -1)): 0.25 microgram/mL | Minimum Inhibitory Concentrations, KP (URMC-1) (KP (URMC-1)): ≤0.06 microgram/mL | Minimum Inhibitory Concentrations, KP (URMC-2) (KP (URMC-2)): ≤0.06 microgram/mL | Minimum Inhibitory Concentrations, KP (URMC-3) (KP (URMC-3)): ≤0.06 microgram/mL | Minimum Inhibitory Concentrations, KP(GJ 5934 TEM-26) (KP(GJ 5934 TEM-26)): 0.5 microgram/mL | Minimum Inhibitory Concentrations, KP(JMI KPC-2) (KP(JMI KPC-2)): 16 microgram/mL | Minimum Inhibitory Concentrations, KP(ATCC TEM-10/TEM-12) (KP(ATCC TEM-10/TEM-12)): 4 microgram/mL | MIC (ENA (URMC-1)): 2 µg/mL | MIC (ENA (URMC-2)): 1 µg/mL | Mimimum Inhibitory Concentrations, CF (RR -1) (CF (RR -1)): ≤0.06 microgram/mL
